{"source": "patent US5416090A", "about": "“Method of treating inflammation” (priority 1992, dated 1995)", "key": {"serum prolactin": {"test_system": "serum prolactin", "experiment": "Serum prolactin levels in mice, time course", "format": "in vivo, mouse (Balb/C)", "procedure": "A further mechanistic study wherein rat serum prolactin levels were quantitated 1 hour post-treatment with varying doses of D-1-isopropyl-6-n-propyl-8β-methylthiomethyl ergoline is summarized in FIG. 11. […] A time course/dose response study of D-1-isopropyl-6-n-propyl-8β-methylthio-methyl ergoline effects on murine serum prolactin levels is presented in FIG. 12. […] There is however a disparity between the suppression of prolactin and anti-inflammatory activities of the ergolines with regard to the dose response profiles. Serum prolactin levels are much more sensitive to D-1-isopropyl-6-n-propyl-8β-methylthiomethyl ergoline (maximal suppression ~≤0.1 mg/kg) than are the anti-inflammatory effects 3-10 mg/kg, See FIG. 5).\nBoth Balb/C mice (male, approximately 20 g, Charles Rivers) and Lewis rats (male, approximately 200 g, Charles River or Harlan Sprague Dawley) were used in neuroendocrine studies. Animals were maintained on a 12:12 hour light:dark cycle and were allowed ad lib access for food (Purina lab chow) and water. Experimental groups consisted of 6 to 8 animals.\nAfter dosing with test compounds, animals were sacrificed by decapitation at 1, 3, 8 or 24 hour intervals. […] Serum prolactin was determined by radioimmunoassay. Serum corticosterone levels were determined with a kit designed for such determinations and obtained from ICN."}, "[1]": {"test_system": "delayed type hypersensitivity (DTH) in adrenalectomized mice", "experiment": "DTH response in adrenalectomized (ADX) mice", "format": "in vivo, mouse (Balb/c)", "settings": "FIG. 10B", "source_text": "CMC= carboxymethylcellulose vehicle control; NEG=negative control for DTH; POS=positive control for DTH.\nDopamine agonists are known to elevate circulating glucocorticoid levels, via activation of the hypothalamo-pituitary-adrenal axis. […] Since glucocorticoids are potential endogenous anti-inflammatory substances, this action is one potential mechanism for the anti-inflammatory effect of the ergolines. However, in subsequent inflammation studies, the anti-inflammatory effects of D-1-isopropyl-6-n-propyl-8β-methylthiomethyl ergoline were retained in mice lacking an adrenal gland and therefore devoid of the increase in circulating corticosterone. (FIG. 10B)\nMale Balb/c mice (Charles River) weighing 20 to 25 g were used in all DTH studies. When adrenalectomized studies were carried out, sham surgery and adrenalectomized mice were obtained from the vendor. Animals were maintained on a 12:12 hour light:dark cycle. […]\nA DTH response was assessed by measuring the degree of rear foot pad swelling induced by picryl chloride. […] On day 3, mice were anesthetized with methoxyflurane, and the baseline rear foot pad thickness was measured with a micrometer (Mitutoyo) in μ, and was recorded in duplicate. […] Twenty-four hours later, the mice were sacrificed by CO2 asphyxiation and each rear foot pad was again measured in duplicate, and any evidence of foot pad swelling was calculated. […]"}, "[2]": {"test_system": "5-HT induced paw swelling", "experiment": "Serotonin (5-HT) induced acute paw inflammation", "format": "in vivo, rat (Lewis)", "procedure": "In one such model, the acute paw inflammation model, rats were treated with test compounds one hour prior to plantar injection of a 50 μl volume of a phlogistic. Animals were sacrificed and paw weights were determined at a prescribed time interval following the plantar injections. When 1% carrageenan was used as the phlogistic, the time interval between injection and sacrifice was 3 hours. When serotonin (5-hydroxytryptamine (5-HT)) was used, as the phlogistic agent the time interval was one hour. When substance P was used, the time interval was 30 minutes. The acute paw inflammation model is described in more detail in Example 3.\nMale Lewis rats (Charles River or Harlan Sprague Dawley) weighing 180 to 250 g were used in all acute inflammatory studies. Animals were maintained on a 12:12 hour light:dark cycle and were allowed ad lib access for food (Purina lab chow) and water. Experimental groups consisted of 5 or 6 rats.\nAcute paw swelling was induced by the intraplantar injection of phlogistic agents into the left hind paw, with the uninjected right hind paw serving as the comparative control. One hour after dosing with test compound, 50 μl of serotonin (Sigma; 0.005 to 0.2 mg/ml in normal saline) or substance P (Sigma; 0.01 or 0.05 mg/ml in 10% thiorphan in normal saline) or carrageenan (Marine Colloidal or Sigma Type IV; 1% in normal saline) were injected under the skin of the left hind paw, while the animal was restrained in a plastic cone. Negative controls were given 50 μl intradermal injections of normal saline (serotonin or carrageenan assays) or 10% thiorphan (substance P assays) into the left hind paw. One hour following injection of serotonin, or 30 minutes following injection of substance P, or 180 minutes following injection of carrageenan, the animals were sacrificed by CO2 asphyxiation. The right and left hind paws were cut just proximal to the tibiotarsal joint and weighed. The difference in weight between an individual animal's left and right paws were used as an indicator of tissue swelling.\nAs indicated above, test compounds are administered as a one hour pretreatment. In one series of experiments, 24 hour and 48 hour drug pretreatment periods were used. Test compounds were dosed intraperitoneally as a suspension in 1% carboxymethylcellulose."}, "[3]": {"test_system": "delayed type hypersensitivity (picryl chloride induced foot pad swelling)", "experiment": "Murine delayed type hypersensitivity (DTH) response, picryl chloride", "format": "in vivo, mouse (Balb/c)", "procedure": "The activity of ergoline compounds was also evaluated in a murine delayed-type hypersensitivity (DTH) assay. The DTH assay was performed in substantial accordance with the method set forth in Example 1. Briefly, mice were sensitized by topical administration of picryl chloride on day 1 of the assay. On day 4 paw size was determined and recorded and the paw was then challenged with picryl chloride. The challenged paw was remeasured on day 5 to quantitate the DTH response via the increase in paw size.\nMale Balb/c mice (Charles River) weighing 20 to 25 g were used in all DTH studies. When adrenalectomized studies were carried out, sham surgery and adrenalectomized mice were obtained from the vendor. Animals were maintained on a 12:12 hour light:dark cycle. Mice were allowed ad lib access for food (Purina lab chow) and water (normal saline for adrenalectomized animals).\nA DTH response was assessed by measuring the degree of rear foot pad swelling induced by picryl chloride. On day 0, mice were sensitized with 100 μl of 5% picryl chloride (in ethanol), which was applied to a shaved abdomen. Negative control groups were shaved but not sensitized. On day 3, mice were anesthetized with methoxyflurane, and the baseline rear foot pad thickness was measured with a micrometer (Mitutoyo) in μ, and was recorded in duplicate. Fifty μl of picryl chloride was then applied to each pad with a pipet (Rainen) while the animal was unconscious. The negative controls also received picryl chloride at this point to control for primary irritancy. Twenty-four hours later, the mice were sacrificed by CO2 asphyxiation and each rear foot pad was again measured in duplicate, and any evidence of foot pad swelling was calculated. The mean rear foot swelling change of both pads for each animal from days 3 to 4 was used as the index of immune function in the DTH assay.\nUnless otherwise stated all animals were given four subcutaneous doses of test compound just prior to picryl chloride sensitization on day 0, on day 1 and day 2, and just prior to picryl chloride challenge on day 3. In a few experiments, compounds were administered via oral or intraperitoneal routes. All drugs were delivered as suspensions in 1% carboxy-methylcellulose (also contained 0.8% NaCl, 1% polysorbate-80, 1.4% benzyl alcohol). Carboxymethyl-cellulose (1%) was used in control injections."}}}
{"compound": "CCCN1C[C@H](CSC)C[C@@H]2c3cccc4c3c(cn4C(C)C)C[C@H]21", "note": "[Compound 1, D-1-isopropyl-6-n-propyl-8β-methylthiomethyl ergoline]", "values": [{"measurement": "duration of effect on serum prolactin", "setting": "serum prolactin; FIG. 12, single injection", "value": "particularly long lasting effects"}, {"measurement": "ED (maximal)", "setting": "serum prolactin; Mus musculus, compared with anti-inflammatory doses, read-out: dose for maximal suppression of serum prolactin", "value": "≤ 0.1", "unit": "mg/kg"}, {"measurement": "anti-inflammatory effect in mice lacking an adrenal gland", "setting": "[1]; listed as D-1-isopropyl-6-n-propyl-8β-methylthiomethyl ergoline", "value": "retained"}, {"measurement": "anti-inflammatory effect in mice lacking an adrenal gland", "setting": "[1]; listed as compound 1", "value": "inhibitory effect"}, {"measurement": "reduction in paw swelling", "setting": "[2]; 3 mg/kg dosed 24 hours prior to phlogistic challenge", "value": "significant reduction in paw swelling"}, {"measurement": "reduction in paw swelling", "setting": "[2]; 3 mg/kg dosed 48 hours prior to phlogistic challenge", "value": "significant reduction in paw swelling"}, {"measurement": "effect on 5-HT induced paw swelling", "setting": "[2]; FIG. 2", "value": "Inhibitory effect"}, {"measurement": "duration of anti-inflammatory effect", "setting": "[2]; FIG. 3", "value": "longlasting"}, {"measurement": "inhibition of serotonin induced paw swelling", "setting": "[2]; FIG. 3, serotonin 0.2 mg/kg, 1, 24 and 48 hour following a single injection", "value": "Inhibition"}, {"measurement": "minimal effective dose", "setting": "[2]; Rattus norvegicus, ip, read-out: lowest stated dosage with a significant reduction in paw swelling", "value": 0.1, "unit": "mg/kg"}, {"measurement": "reduction of paw swelling in DTH", "setting": "[3]; FIG. 4 Panel A", "value": "efficacy"}, {"measurement": "reduction of DTH paw swelling, 4 day vs two day treatment", "setting": "[3]; FIG. 4 Panel A, 4 days vs two day treatment schedule", "value": "superior efficacy"}, {"measurement": "dose for anti-inflammatory effects", "setting": "[3]; FIG. 5", "value": "3 to 10", "unit": "mg/kg"}]}
